Molecular target: T1, Human CaV2.2 channels (Homo sapiens, UniProt Q00975)
T1 construct: expressed in transfected cells
Assay: Fluorescence assay for CaV2.2 channels using potassium depolarization to induce channel opening (FLIPR, Fluo 4)
Type: cell-based
Conditions: alternative assay buffer 30 mM KCl (inactivated channel state), HEK293 cells stably expressing human CaV2.2; for inhibition at 3 µM: HEK293, 3 μM test compound, read-out: Activity Category: %-Inhib (CaV2.2) @3 μM @30 mM KCl; for Activity Category: %-Inhib (CaV2.2) @3 μM @30 mM KCl: 3 μM test compound
How it was run: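 HEK293 cells stably co-expressing CaV2.2 with alpha2-delta and beta subunits plus Kir2.3, loaded with 2 μM Fluo 4 and pre-incubated 15 min at 25° C with compound in 1 mM or 30 mM KCl buffer (pH 7.4; latter promotes inactivated state). Depolarized by KCl addition; peak fluorescence amplitude normalized to baseline gives inhibition.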

T1 sequence (P54289 947-1103): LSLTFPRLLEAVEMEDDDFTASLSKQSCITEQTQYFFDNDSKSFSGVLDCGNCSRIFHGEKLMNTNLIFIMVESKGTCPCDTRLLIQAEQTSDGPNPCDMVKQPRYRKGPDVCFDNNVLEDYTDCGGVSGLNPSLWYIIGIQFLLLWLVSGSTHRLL
T1 sequence (P54289 25-946): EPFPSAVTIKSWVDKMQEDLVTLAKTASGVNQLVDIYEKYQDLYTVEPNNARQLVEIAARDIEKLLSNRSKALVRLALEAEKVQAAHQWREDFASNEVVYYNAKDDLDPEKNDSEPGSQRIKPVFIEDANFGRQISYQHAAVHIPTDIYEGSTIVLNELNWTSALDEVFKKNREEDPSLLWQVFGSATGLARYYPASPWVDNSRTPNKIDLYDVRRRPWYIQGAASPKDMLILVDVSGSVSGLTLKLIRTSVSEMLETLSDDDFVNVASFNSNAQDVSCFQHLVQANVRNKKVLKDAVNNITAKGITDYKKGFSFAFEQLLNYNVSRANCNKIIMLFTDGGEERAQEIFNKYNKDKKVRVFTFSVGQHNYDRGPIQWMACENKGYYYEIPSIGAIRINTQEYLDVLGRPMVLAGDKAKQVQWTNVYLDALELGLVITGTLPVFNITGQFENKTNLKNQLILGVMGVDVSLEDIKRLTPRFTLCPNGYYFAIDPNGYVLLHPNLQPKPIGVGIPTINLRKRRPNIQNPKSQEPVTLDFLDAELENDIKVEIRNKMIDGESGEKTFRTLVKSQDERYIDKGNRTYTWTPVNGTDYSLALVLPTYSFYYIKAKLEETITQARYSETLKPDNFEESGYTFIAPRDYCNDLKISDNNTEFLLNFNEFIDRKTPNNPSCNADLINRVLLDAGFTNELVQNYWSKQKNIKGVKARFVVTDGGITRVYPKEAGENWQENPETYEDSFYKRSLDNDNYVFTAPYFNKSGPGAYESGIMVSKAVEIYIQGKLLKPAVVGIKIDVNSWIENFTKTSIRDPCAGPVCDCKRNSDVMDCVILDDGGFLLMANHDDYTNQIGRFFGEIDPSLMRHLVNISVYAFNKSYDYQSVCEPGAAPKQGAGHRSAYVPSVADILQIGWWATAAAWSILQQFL
T1 sequence (P54284 whole entry, further chain): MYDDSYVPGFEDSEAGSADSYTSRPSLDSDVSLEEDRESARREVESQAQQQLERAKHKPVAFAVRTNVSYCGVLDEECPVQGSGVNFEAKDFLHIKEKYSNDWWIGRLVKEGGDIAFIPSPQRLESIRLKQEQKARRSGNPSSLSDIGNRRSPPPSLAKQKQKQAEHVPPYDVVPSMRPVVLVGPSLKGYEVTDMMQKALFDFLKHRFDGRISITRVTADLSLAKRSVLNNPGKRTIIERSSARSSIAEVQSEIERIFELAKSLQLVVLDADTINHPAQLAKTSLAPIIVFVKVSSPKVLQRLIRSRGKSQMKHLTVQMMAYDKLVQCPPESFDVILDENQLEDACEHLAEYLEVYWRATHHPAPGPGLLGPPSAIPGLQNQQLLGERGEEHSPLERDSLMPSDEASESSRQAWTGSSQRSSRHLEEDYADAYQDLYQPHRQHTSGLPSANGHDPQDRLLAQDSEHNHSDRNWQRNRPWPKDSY
T1 sequence (Q00975 whole entry): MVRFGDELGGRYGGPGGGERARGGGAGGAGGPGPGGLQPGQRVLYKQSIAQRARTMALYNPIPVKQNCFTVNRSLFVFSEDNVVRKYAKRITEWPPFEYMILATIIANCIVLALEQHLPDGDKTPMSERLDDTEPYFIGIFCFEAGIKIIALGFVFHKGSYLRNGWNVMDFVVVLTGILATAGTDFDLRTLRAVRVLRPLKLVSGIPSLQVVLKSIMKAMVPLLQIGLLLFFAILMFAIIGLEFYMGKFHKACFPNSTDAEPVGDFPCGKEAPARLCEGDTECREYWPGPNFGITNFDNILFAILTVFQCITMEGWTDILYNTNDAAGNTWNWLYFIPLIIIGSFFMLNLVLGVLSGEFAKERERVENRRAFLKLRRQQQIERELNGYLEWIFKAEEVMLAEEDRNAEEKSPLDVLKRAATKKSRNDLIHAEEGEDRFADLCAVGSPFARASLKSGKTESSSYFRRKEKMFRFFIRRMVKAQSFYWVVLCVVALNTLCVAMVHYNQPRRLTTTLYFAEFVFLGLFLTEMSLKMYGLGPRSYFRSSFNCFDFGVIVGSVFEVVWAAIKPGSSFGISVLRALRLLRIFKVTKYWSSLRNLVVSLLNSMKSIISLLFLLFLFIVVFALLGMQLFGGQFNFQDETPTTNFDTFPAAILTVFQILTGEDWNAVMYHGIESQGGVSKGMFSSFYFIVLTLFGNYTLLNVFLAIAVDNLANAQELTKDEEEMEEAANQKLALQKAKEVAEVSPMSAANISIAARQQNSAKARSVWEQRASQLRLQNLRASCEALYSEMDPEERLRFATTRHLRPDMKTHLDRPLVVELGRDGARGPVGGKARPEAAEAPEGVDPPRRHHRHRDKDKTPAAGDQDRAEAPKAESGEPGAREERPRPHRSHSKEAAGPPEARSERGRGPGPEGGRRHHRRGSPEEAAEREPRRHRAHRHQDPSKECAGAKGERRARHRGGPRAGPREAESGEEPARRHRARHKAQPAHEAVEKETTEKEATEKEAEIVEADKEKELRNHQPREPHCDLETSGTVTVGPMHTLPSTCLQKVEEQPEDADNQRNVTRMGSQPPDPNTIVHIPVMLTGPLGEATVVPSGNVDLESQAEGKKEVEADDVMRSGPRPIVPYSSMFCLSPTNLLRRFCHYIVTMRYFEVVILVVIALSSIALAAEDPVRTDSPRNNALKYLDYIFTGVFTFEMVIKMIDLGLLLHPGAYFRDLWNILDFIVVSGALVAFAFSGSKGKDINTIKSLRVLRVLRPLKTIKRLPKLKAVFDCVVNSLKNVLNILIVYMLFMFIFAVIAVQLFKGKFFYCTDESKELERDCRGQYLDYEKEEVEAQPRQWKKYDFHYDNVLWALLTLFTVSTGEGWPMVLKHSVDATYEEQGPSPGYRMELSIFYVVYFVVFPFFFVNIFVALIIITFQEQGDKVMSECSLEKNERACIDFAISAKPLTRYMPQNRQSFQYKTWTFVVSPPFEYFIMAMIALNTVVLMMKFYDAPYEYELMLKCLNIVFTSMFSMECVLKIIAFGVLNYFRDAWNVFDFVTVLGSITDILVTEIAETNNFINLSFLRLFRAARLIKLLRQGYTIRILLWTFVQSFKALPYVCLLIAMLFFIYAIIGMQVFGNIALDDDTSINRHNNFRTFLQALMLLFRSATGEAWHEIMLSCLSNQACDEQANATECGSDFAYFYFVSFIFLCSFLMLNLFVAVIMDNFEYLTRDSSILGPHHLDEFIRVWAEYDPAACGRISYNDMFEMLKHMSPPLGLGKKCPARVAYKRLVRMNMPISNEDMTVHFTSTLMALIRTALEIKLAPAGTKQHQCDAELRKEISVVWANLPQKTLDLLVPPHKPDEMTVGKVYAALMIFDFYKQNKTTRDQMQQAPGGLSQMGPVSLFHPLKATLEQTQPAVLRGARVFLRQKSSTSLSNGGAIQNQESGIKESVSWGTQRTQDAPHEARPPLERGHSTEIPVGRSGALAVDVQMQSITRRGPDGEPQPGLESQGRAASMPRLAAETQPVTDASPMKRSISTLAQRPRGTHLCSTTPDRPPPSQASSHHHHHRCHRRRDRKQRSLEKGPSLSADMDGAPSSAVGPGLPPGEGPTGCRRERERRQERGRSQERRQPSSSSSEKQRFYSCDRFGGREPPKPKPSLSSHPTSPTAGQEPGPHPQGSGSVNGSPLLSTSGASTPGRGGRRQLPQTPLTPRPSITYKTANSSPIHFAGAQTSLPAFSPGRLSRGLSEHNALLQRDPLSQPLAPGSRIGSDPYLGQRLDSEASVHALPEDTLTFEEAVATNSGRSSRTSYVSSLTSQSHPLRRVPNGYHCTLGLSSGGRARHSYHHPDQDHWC

SMILES	inhibition at 3 µM [%]	Activity Category: %-Inhib (CaV2.2) @3 μM @30 mM KCl
O=S(=O)(c1cccc(C(F)(F)F)c1)C1CCOC(c2ccc(C(F)(F)F)nc2)C1 (stereo not drawn) [SC-342, 2-(Trifluoromethyl)-5-[4-[[3-(trifluoromethyl)phenyl]sulfonyl]-tetrahydro-pyran-2-yl]-pyridine]	75 to 95	–
Cn1nc(C(F)(F)F)cc1C1CC(C)(S(=O)(=O)c2cccc(C(F)(F)F)c2)CCO1 (stereo not drawn) [SC-343, 1-Methyl-5-[4-methyl-4-[[3-(trifluoromethyl)phenyl]sulfonyl]-tetrahydro-pyran-2-yl]-3-(trifluoromethyl)-1H-pyrazole]	75 to 95	–
Cn1nc(C(F)(F)F)cc1C1CC(C)(S(=O)(=O)c2cccc(C(F)(F)F)c2)CCO1 (stereo not drawn) [SC-345, 1-Methyl-5-[4-methyl-4-[[3-(trifluoromethyl)phenyl]sulfonyl]-tetrahydro-pyran-2-yl]-3-(trifluoromethyl)-1H-pyrazole]	–	A (%-Inhibition >95%)
CC1(S(=O)(=O)c2cccc(C(F)(F)F)c2)CCOC(c2ccc(C3CC3)nc2)C1 (stereo not drawn) [SC-346, 2-Cyclopropyl-5-[4-methyl-4-[[3-(trifluoromethyl)phenyl]sulfonyl]-tetrahydro-pyran-2-yl]-pyridine]	75 to 95	–
CC1(S(=O)(=O)c2cccc(C(F)(F)F)c2)CCOC(c2ccc(C3CC3)nc2)C1 (stereo not drawn) [SC-348, 2-Cyclopropyl-5-[4-methyl-4-[[3-(trifluoromethyl)phenyl]sulfonyl]-tetrahydro-pyran-2-yl]-pyridine]	–	A (%-Inhibition >95%)
O=S(=O)(c1cccc(C(F)(F)F)c1)C1CCOC(c2cccc(C(F)(F)F)n2)C1 (stereo not drawn) [SC-350, 2-(Trifluoromethyl)-6-[4-[[3-(trifluoromethyl)phenyl]sulfonyl]-tetrahydro-pyran-2-yl]-pyridine]	> 95	–
COc1ccc(C2CC(C)(S(=O)(=O)c3cccc(C(F)(F)F)c3)CCO2)cn1 (stereo not drawn) [SC-353, 2-Methoxy-5-[4-methyl-4-[[3-(trifluoromethyl)phenyl]sulfonyl]-tetrahydro-pyran-2-yl]-pyridine]	75 to 95	–
COc1ccc(C2CC(C)(S(=O)(=O)c3cccc(C(F)(F)F)c3)CCO2)cn1 (stereo not drawn) [SC-354, 2-Methoxy-5-[4-methyl-4-[[3-(trifluoromethyl)phenyl]sulfonyl]-tetrahydro-pyran-2-yl]-pyridine]	–	A (%-Inhibition >95%)
CC1(S(=O)(=O)c2cccc(C(F)(F)F)c2)CCOC(c2ncc(C(F)(F)F)cc2S(C)(=O)=O)C1 (stereo not drawn) [SC-355, 3-Methylsulfonyl-2-[4-methyl-4-[[3-(trifluoromethyl)phenyl]sulfonyl]-tetrahydro-pyran-2-yl]-5-(trifluoromethyl)-pyridine]	75 to 95	–
CC1(S(=O)(=O)c2cccc(C(F)(F)F)c2)CCOC(c2ncc(C(F)(F)F)cc2S(C)(=O)=O)C1 (stereo not drawn) [SC-356, 3-Methylsulfonyl-2-[4-methyl-4-[[3-(trifluoromethyl)phenyl]sulfonyl]-tetrahydro-pyran-2-yl]-5-(trifluoromethyl)-pyridine]	–	A (%-Inhibition >95%)
CC1(S(=O)(=O)c2cccc(C(F)(F)F)c2)CCOC(c2ccc(N3CCCC3)nc2)C1 (stereo not drawn) [SC-400, 5-[4-Methyl-4-[[3-(trifluoromethyl)phenyl]sulfonyl]-tetrahydro-pyran-2-yl]-2-pyrrolidin-1-yl-pyridine]	> 95	–
CC1(S(=O)(=O)c2cccc(C(F)(F)F)c2)CCOC(c2ccc(-n3cncn3)nc2)C1 (stereo not drawn) [SC-402, 5-[4-Methyl-4-[[3-(trifluoromethyl)phenyl]sulfonyl]-tetrahydro-pyran-2-yl]-2-(1H-[1,2,4]triazol-1-yl)-pyridine]	75 to 95	–
COCCOc1ccc(C2CC(C)(S(=O)(=O)c3cccc(C(F)(F)F)c3)CCO2)cn1 (stereo not drawn) [SC-404, 2-(2-Methoxy-ethoxy)-5-[4-methyl-4-[[3-(trifluoromethyl)phenyl]sulfonyl]-tetrahydro-pyran-2-yl]-pyridine]	75 to 95	–
CNc1ccc(C2CC(C)(S(=O)(=O)c3cccc(C(F)(F)F)c3)CCO2)cn1 (stereo not drawn) [SC-408, Methyl-[5-[4-methyl-4-[[3-(trifluoromethyl)phenyl]sulfonyl]-tetrahydro-pyran-2-yl]-pyridin-2-yl]-amine]	75 to 95	–
COc1ncc(C2CC(C)(S(=O)(=O)c3cccc(C(F)(F)F)c3)CCO2)cn1 (stereo not drawn) [SC-410, 2-Methoxy-5-[4-methyl-4-[[3-(trifluoromethyl)phenyl]sulfonyl]-tetrahydro-pyran-2-yl]-pyrimidine]	40 to 75	–
CN(C)c1ncc(C2CC(C)(S(=O)(=O)c3cccc(C(F)(F)F)c3)CCO2)cn1 (stereo not drawn) [SC-413, Dimethyl-[5-[4-methyl-4-[[3-(trifluoromethyl)phenyl]sulfonyl]-tetrahydro-pyran-2-yl]-pyrimidin-2-yl]-amine]	75 to 95	–
COc1cnc(C2CC(C)(S(=O)(=O)c3cccc(C(F)(F)F)c3)CCO2)cn1 (stereo not drawn) [SC-415, 2-Methoxy-5-[4-methyl-4-[[3-(trifluoromethyl)phenyl]sulfonyl]-tetrahydro-pyran-2-yl]-pyrazine]	75 to 95	–
CC1(S(=O)(=O)c2cccc(C(F)(F)F)c2)CCOC(c2ccc(OC(F)F)nc2)C1 (stereo not drawn) [SC-418, 2-(Difluoro-methoxy)-5-[4-methyl-4-[[3-(trifluoromethyl)phenyl]sulfonyl]-tetrahydro-pyran-2-yl]-pyridine]	> 95	–
CN(C)c1cnc(C2CC(C)(S(=O)(=O)c3cccc(C(F)(F)F)c3)CCO2)cn1 (stereo not drawn) [SC-421, Dimethyl-[5-[4-methyl-4-[[3-(trifluoromethyl)phenyl]sulfonyl]-tetrahydro-pyran-2-yl]-pyrazin-2-yl]-amine]	75 to 95	–
CC1(S(=O)(=O)c2cccc(C(F)(F)F)c2)CCOC(c2ncc(C3CC3)cc2Cl)C1 (stereo not drawn) [SC-425, 3-Chloro-5-cyclopropyl-2-[4-methyl-4-[[3-(trifluoromethyl)phenyl]sulfonyl]-tetrahydro-pyran-2-yl]-pyridine]	> 95	–
CC1(S(=O)(=O)c2cccc(C(F)(F)F)c2)CCOC(c2ncc(OC(F)F)cc2Cl)C1 (stereo not drawn) [SC-427, 3-Chloro-5-(difluoro-methoxy)-2-[4-methyl-4-[[3-(trifluoromethyl)phenyl]sulfonyl]-tetrahydro-pyran-2-yl]-pyridine]	> 95	–
Cn1nc(S(C)(=O)=O)cc1C1CC(C)(S(=O)(=O)c2cccc(C(F)(F)F)c2)CCO1 (stereo not drawn) [SC-429, 1-Methyl-3-methylsulfonyl-5-[4-methyl-4-[[3-(trifluoromethyl)phenyl]sulfonyl]-tetrahydro-pyran-2-yl]-1H-pyrazole]	–	C (%-Inhibition >40% up to ≤75%)
Cn1nc(S(C)(=O)=O)cc1C1CC(C)(S(=O)(=O)c2cccc(C(F)(F)F)c2)CCO1 (stereo not drawn) [SC-430, 1-Methyl-3-methylsulfonyl-5-[4-methyl-4-[[3-(trifluoromethyl)phenyl]sulfonyl]-tetrahydro-pyran-2-yl]-1H-pyrazole]	–	B (%-Inhibition >75% up to ≤95%)
Cn1nc(C2CC2)cc1C1CC(C)(S(=O)(=O)c2cccc(C(F)(F)F)c2)CCO1 (stereo not drawn) [SC-431, 3-Cyclopropyl-1-methyl-5-[4-methyl-4-[[3-(trifluoromethyl)phenyl]sulfonyl]-tetrahydro-pyran-2-yl]-1H-pyrazole]	75 to 95	–
